We go through 8 compounds from PubChem BioAssay (NCI).

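In this assay, cells in 96-well plates receive the compound at five concentrations for 48 hours. Endpoints are linearly interpolated between the surrounding concentrations. Here, GI50 denotes the concentration required for 50% inhibition of growth. TGI: total growth inhibition.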

Test systems include A549 NSCLC; A498 renal; MDA-MB-435; HOP-62 NSCLC; U251 CNS; MOLT-4 leukemia; T-47D breast; SN12C renal; HCT-116 colon; MALME-3M melanoma.
What all share (experiment): growth of human tumour cells (NCI), 48 h

Regarding `CCC1(N2C(=O)c3c(F)c(F)c(F)c(F)c3C2=O)C(=O)NC(=O)N(c2ccccc2)C1=O` (stereo not drawn), the GI50 in the assay on A549 NSCLC is 14 µM; with A498 renal, 12.2 µM; with MDA-MB-435, 2.89 µM; with HOP-62 NSCLC, 4.93 µM; with U251 CNS, 1.53 µM; with MOLT-4 leukemia, 2.64 µM. Besides, the GI50 was 2.2 µM with T-47D breast, 1.57 µM in the assay with SN12C renal and 4.1 µM in the assay with HCT-116 colon. Also, the TGI in the assay with A549 NSCLC was 28.6 µM; with A498 renal, 25.9 µM; in the assay with MDA-MB-435, 8.02 µM; with HOP-62 NSCLC, 20.8 µM; in the assay on U251 CNS, 3.07 µM; with MOLT-4 leukemia it was 6.35 µM. Moreover, the values for the TGI in the assay with T-47D breast, with SN12C renal and in the assay with HCT-116 colon were 4.72 µM, 3.54 µM and 18.2 µM, respectively.
`COc1ncnc2c(-c3ccco3)cn(COCc3ccccc3)c12`: the GI50 was more than 50 µM in the assay on A549 NSCLC; 0.697 µM in the assay on A498 renal; more than 50 µM in the assay on MDA-MB-435; more than 50 µM in the assay on HOP-62 NSCLC; 10.6 µM in the assay on U251 CNS; 2.98 µM in the assay on T-47D breast. Also, the GI50 was more than 50 µM with SN12C renal, 3.76 µM in the assay on HCT-116 colon and more than 50 µM in the assay with MALME-3M melanoma. Besides, the TGI in the assay on A549 NSCLC, in the assay with A498 renal, with MDA-MB-435, with HOP-62 NSCLC, in the assay on U251 CNS and with T-47D breast was more than 50 µM in each case. For the same compound, the TGI in the assay on SN12C renal, in the assay with HCT-116 colon and with MALME-3M melanoma was more than 50 µM throughout.
With `C=C(CC1(CC(=C)c2ccc(C(=O)O)cc2)C(=O)N(C)C(=O)N(C)C1=O)c1ccc(C(=O)O)cc1`, the GI50 with A549 NSCLC is more than 100 µM; in the assay on A498 renal, 53.2 µM; with MDA-MB-435, 51.7 µM; with HOP-62 NSCLC it was 66.5 µM; with U251 CNS, 54.2 µM; with MOLT-4 leukemia, 38.3 µM. The GI50 in the assay with T-47D breast was 25.2 µM; in the assay with SN12C renal, 59.2 µM; in the assay on HCT-116 colon, 49.6 µM. Besides, the TGI in the assay with A549 NSCLC, in the assay on A498 renal, with MDA-MB-435, with HOP-62 NSCLC, in the assay on U251 CNS and in the assay on MOLT-4 leukemia was more than 100 µM throughout. Besides, the TGI with T-47D breast, in the assay on SN12C renal and in the assay with HCT-116 colon was more than 100 µM in each case.
With `COC1C(CO)OC(n2c3ccccc3c3c4c(c5c6ccccc6[nH]c5c32)C(=O)NC4=O)C(O)C1OC(=O)C(N)CCCCN` (stereo not drawn), the GI50 in the assay on A549 NSCLC was 3.27 µM; in the assay with A498 renal, 0.917 µM; with MDA-MB-435, 1.07 µM; with HOP-62 NSCLC it was 1.09 µM; with U251 CNS, 0.282 µM; in the assay on MOLT-4 leukemia, 0.178 µM. For the same compound, the GI50 is 0.405 µM in the assay with SN12C renal and 0.11 µM in the assay on MALME-3M melanoma. Also, the TGI in the assay with A549 NSCLC is more than 50 µM; with A498 renal, 3.11 µM; in the assay with MDA-MB-435, 5.04 µM; in the assay with HOP-62 NSCLC, 17.4 µM; in the assay with U251 CNS it was more than 11.5 µM; in the assay with MOLT-4 leukemia, more than 50 µM. Further, the TGI is more than 10.3 µM in the assay on T-47D breast, 2.36 µM in the assay on SN12C renal and 0.946 µM with MALME-3M melanoma.
In the case of `COc1ccc(S(=O)(=O)NCCNc2nccc(-c3c(-c4ccccc4)nc4sccn34)n2)cc1`, the GI50 was 1.61 µM with A549 NSCLC; 1.16 µM with A498 renal; 1.22 µM in the assay with MDA-MB-435; 15.3 µM in the assay with HOP-62 NSCLC; 5.17 µM with U251 CNS; 3.17 µM with T-47D breast. The GI50 in the assay with SN12C renal is 1.93 µM; in the assay on HCT-116 colon, 1.58 µM; with MALME-3M melanoma, 8.77 µM. For the same compound, the TGI in the assay with A549 NSCLC was more than 100 µM; in the assay with A498 renal it was 8.9 µM; with MDA-MB-435, more than 100 µM; in the assay with HOP-62 NSCLC, more than 100 µM; in the assay with U251 CNS, more than 100 µM; in the assay with T-47D breast it was more than 100 µM. The TGI in the assay on SN12C renal, with HCT-116 colon and with MALME-3M melanoma was more than 100 µM throughout.
Turning to `CCSc1nc(N)c2cnn(C)c2n1`, the GI50 in the assay with A549 NSCLC is 52.6 µM; in the assay with A498 renal, 3.26 µM; in the assay on MDA-MB-435, 38.7 µM; in the assay with U251 CNS, 40.6 µM; with MOLT-4 leukemia it was 59.9 µM; with T-47D breast it was 0.0485 µM. Also, the results for the GI50 in the assay with SN12C renal, in the assay with HCT-116 colon and in the assay on MALME-3M melanoma were 48.9 µM, 28.9 µM and 33.6 µM, respectively. In addition, the TGI in the assay with A549 NSCLC is more than 100 µM; in the assay on A498 renal, 21.5 µM; in the assay with MDA-MB-435, more than 100 µM; with U251 CNS it was more than 100 µM; with MOLT-4 leukemia, more than 100 µM; in the assay on T-47D breast it was more than 100 µM. Also, the TGI with SN12C renal, in the assay on HCT-116 colon and in the assay on MALME-3M melanoma was more than 100 µM throughout.
Turning to `O=c1c2cc(F)ccc2sc2c(NCCCN3CCCC3)nc3ccccc3c12`, the GI50 with A549 NSCLC was 1.87 µM; in the assay on A498 renal, 1.74 µM; in the assay with MDA-MB-435, 1.8 µM; with U251 CNS, 1.81 µM; in the assay on MOLT-4 leukemia, 1.97 µM; in the assay on T-47D breast it was 3.89 µM. The GI50 in the assay on SN12C renal was 1.97 µM; with HCT-116 colon, 1.63 µM; in the assay with MALME-3M melanoma, 1.77 µM. Moreover, the TGI in the assay on A549 NSCLC stood at 3.83 µM; in the assay with A498 renal, 7.65 µM; with MDA-MB-435, 3.25 µM; in the assay with U251 CNS it was 3.62 µM; in the assay with MOLT-4 leukemia it was 4.22 µM; with T-47D breast, 23.8 µM. The TGI stood at 4.6 µM in the assay with SN12C renal, 3.19 µM in the assay with HCT-116 colon and 3.37 µM in the assay on MALME-3M melanoma.
In the case of `CCCCCCCCCCCCCCCCCC1=NC(C)(C)CN1CCO`, the GI50 is 13.5 µM with A498 renal; 1.73 µM with MDA-MB-435; 1.82 µM with HOP-62 NSCLC; 1.65 µM in the assay on U251 CNS; 1.96 µM in the assay on MOLT-4 leukemia; 2.24 µM in the assay with T-47D breast. Also, the GI50 is 1.61 µM in the assay with SN12C renal, 1.63 µM with HCT-116 colon and 2.18 µM with MALME-3M melanoma. Moreover, the TGI turned out to be 32.1 µM in the assay with A498 renal; 3.42 µM in the assay on MDA-MB-435; 3.54 µM in the assay with HOP-62 NSCLC; 3.01 µM in the assay with U251 CNS; 4.73 µM in the assay on MOLT-4 leukemia; 5.61 µM in the assay with T-47D breast. The figures for the TGI in the assay on SN12C renal, in the assay on HCT-116 colon and in the assay on MALME-3M melanoma were 3.61 µM, 3.19 µM and 5.6 µM, respectively.
